# Source: patent US20080039515A1, “Arylpyrazoles And Methods Of Using Same For Control Of Insect Pests That Bore Into Trees” (The Texas A&M University System, priority 2004, published 2008)
# Where two headings read alike, the source gives them in different places.
# Test system: Ips engravers beetles
# Type: in vivo
# Procedure: Study Sites: Two 20-year-old, recently thinned loblolly pine plantations were selected in Texas. Trees in one plantation were injected for use in a bolt study (Trial 1). Trees in ½ acre section of the second plantation were injected as part of a single-tree protection study (Trial 2). A staging area also was set up in the second plantation where bolts from the first plantation were exposed to bark beetles and wood borers.
# Population Monitoring: A clear panel of acetate (10 cm wide by 25 cm long) was attached to the center of each bolt after deployment of bolts or 2 m high on standing trees after deployment of pheromone baits to monitor arrival of bark beetles. The top surface of each panel was coated entirely with Stikem Special® trapping compound (Michel and Pelton, Emeryville, Calif.). The traps were left in place for two weeks.
# After 1 (May 24), 3 (July 19) and 5 (September) months post-injection, 5 trees of each treatment were felled and two 1.5 m long bolts were removed from the 3 m and 8 m heights of the bole. Because southern pine beetle (SPB) populations were extremely low in east Texas during the study year, Ips engravers were used as alternative bark beetles for this study. The bolts were transported to a 20-year-old loblolly plantation that was recently thinned and contained fresh slash material. Each bolt was placed about 1 m apart on discarded, dry pine bolts to maximize surface area available for colonization as well as to discourage predation by ground and litter-inhabiting organisms. To facilitate timely bark beetle colonization, packets of bark beetle pheromones (racemic ipsdienol +lanerione combination, ipsenol or cis-verbenol; Phero Tech, Inc., Delta, BC, Canada) were attached separately to three 1 m stakes evenly spaced in the study area. Racemic ipsdienol and cis-verbenol were used with the second series of bolts deployed in July. The packets were removed after 2 weeks when signs of attacks (boring dust) were observed on most test bolts, signaling that naturally-produced pheromones were present.
# Treatment Evaluation: Trial 1. The first and second series of bolts were retrieved 2.5 and 3 weeks, respectively, after deployment, after observing many cerambycid attacks on most of the bolts. In the laboratory, two 10×50 cm strips (total=1000 cm^2) of bark were removed from each bolt. Several measurements were made relating to construction of nuptial chambers and egg galleries and development of brood: • 1. Number of unsuccessful attacks—penetration to phloem, but no egg galleries. • 2. Number of successful attacks—construction of nuptial chamber and at least one egg gallery extending from it. • 3. Number and lengths of egg galleries with brood galleries radiating from them. • 4. Number and lengths of egg galleries without brood galleries. • 5. Cerambycid activity, estimated by overlaying a 100 cm^2 grid over a portion of each bark strip and counting the number of squares overlapping area where cerambycids had fed.
# Treatment efficacy was determined by comparing Ips beetle attacks and egg gallery length and cerambycid feeding on treated and untreated bolts. The data were transformed by log10(x+1) to satisfy criteria for normality and homoscedasticity (Zar 1984) and analyzed by GLM and the Fishers Protected LSD test using the Statview statistical program.
# [1] = 1 month post-injection (May), bolt height 3 m
# [2] = 1 month post-injection (May), bolt height 8 m
# [3] = 3 months post-injection (July), bolt height 3 m
# [4] = 3 months post-injection (July), bolt height 8 m
# [5] = 3 months post-injection, bolt height 3 m
# [6] = 3 months post-injection, bolt height 8 m
# [7] = 5 months post-injection (Sept.), bolt height 3 m
# [8] = 5 months post-injection (Sept.), bolt height 8 m
smiles,measurement,setting,value
O=[N+]([O-])NC1=NCCN1Cc1ccc(Cl)nc1 [Imid],Length of Egg Galleries Total,[1],442.2
same,Length of Egg Galleries With Brood,[1],283.2 cm
same,Length of Egg Galleries With Brood % of Total,[1],64.0%
same,Length of Egg Galleries Without Brood,[1],159.0 cm
same,Length of Egg Galleries Without Brood % of Total,[1],36.0%
same,Mean # of Ips caught/trap,[1],5.6
same,Number of Egg Galleries Total,[1],65.2
same,Number of Egg Galleries With Brood % of Total,[1],46.0%
same,Number of Egg Galleries With Brood No.,[1],30.0
same,Number of Egg Galleries Without Brood % of Total,[1],54.0%
same,Number of Egg Galleries Without Brood No.,[1],35.2
same,Nuptial Chambers Total,[1],18.2
same,Nuptial Chambers With Egg Galleries % of Total,[1],89.0%
same,Nuptial Chambers With Egg Galleries No.,[1],16.2
same,Nuptial Chambers Without Egg Galleries % of Total,[1],11.0%
same,Nuptial Chambers Without Egg Galleries No.,[1],2.0
same,Length of Egg Galleries Total,[2],315.8
same,Length of Egg Galleries With Brood,[2],197.0 cm
same,Length of Egg Galleries With Brood % of Total,[2],62.4%
same,Length of Egg Galleries Without Brood,[2],118.8 cm
same,Length of Egg Galleries Without Brood % of Total,[2],37.6%
same,Mean # of Ips caught/trap,[2],3.8
same,Number of Egg Galleries Total,[2],49.0
same,Number of Egg Galleries With Brood % of Total,[2],39.6%
same,Number of Egg Galleries With Brood No.,[2],19.4
same,Number of Egg Galleries Without Brood % of Total,[2],60.4%
same,Number of Egg Galleries Without Brood No.,[2],29.6
same,Nuptial Chambers Total,[2],15.8
same,Nuptial Chambers With Egg Galleries % of Total,[2],81.0%
same,Nuptial Chambers With Egg Galleries No.,[2],12.8
same,Nuptial Chambers Without Egg Galleries % of Total,[2],19.0%
same,Nuptial Chambers Without Egg Galleries No.,[2],3.0
same,Mean # of Ips caught/trap,[3],2.6
same,Nuptial Chambers Total,[3],10.8
same,Nuptial Chambers With Egg Galleries % of Total,[3],61.1%
same,Nuptial Chambers With Egg Galleries No.,[3],6.6
same,Nuptial Chambers Without Egg Galleries % of Total,[3],38.9%
same,Nuptial Chambers Without Egg Galleries No.,[3],4.2
same,Mean # of Ips caught/trap,[4],2.0
same,Nuptial Chambers Total,[4],9.4
same,Nuptial Chambers With Egg Galleries % of Total,[4],59.6%
same,Nuptial Chambers With Egg Galleries No.,[4],5.6
same,Nuptial Chambers Without Egg Galleries % of Total,[4],40.4%
same,Nuptial Chambers Without Egg Galleries No.,[4],3.8
same,Length of Egg Galleries Total,[5],187.4
same,Length of Egg Galleries With Brood,[5],151.4 cm
same,Length of Egg Galleries With Brood % of Total,[5],80.8%
same,Length of Egg Galleries Without Brood,[5],36.0 cm
same,Length of Egg Galleries Without Brood % of Total,[5],19.2%
same,Number of Egg Galleries Total,[5],20.6
same,Number of Egg Galleries With Brood % of Total,[5],68.9%
same,Number of Egg Galleries With Brood No.,[5],14.2
same,Number of Egg Galleries Without Brood % of Total,[5],31.1%
same,Number of Egg Galleries Without Brood No.,[5],6.4
same,Length of Egg Galleries Total,[6],130.0
same,Length of Egg Galleries With Brood,[6],87.4 cm
same,Length of Egg Galleries With Brood % of Total,[6],67.2%
same,Length of Egg Galleries Without Brood,[6],42.6 cm
same,Length of Egg Galleries Without Brood % of Total,[6],32.8%
same,Number of Egg Galleries Total,[6],17.4
same,Number of Egg Galleries With Brood % of Total,[6],52.9%
same,Number of Egg Galleries With Brood No.,[6],9.2
same,Number of Egg Galleries Without Brood % of Total,[6],47.1%
same,Number of Egg Galleries Without Brood No.,[6],8.2
same,Length of Egg Galleries Total,[7],163.4
same,Length of Egg Galleries With Brood,[7],154.2 cm
same,Length of Egg Galleries With Brood % of Total,[7],94.4%
same,Length of Egg Galleries Without Brood,[7],9.2 cm
same,Length of Egg Galleries Without Brood % of Total,[7],5.6%
same,Mean # of Ips caught/trap,[7],1.6
same,Number of Egg Galleries Total,[7],13.2
same,Number of Egg Galleries With Brood % of Total,[7],89.4%
same,Number of Egg Galleries With Brood No.,[7],11.8
same,Number of Egg Galleries Without Brood % of Total,[7],10.6%
same,Number of Egg Galleries Without Brood No.,[7],1.4
same,Nuptial Chambers Total,[7],4.6
same,Nuptial Chambers With Egg Galleries % of Total,[7],95.7%
same,Nuptial Chambers With Egg Galleries No.,[7],4.4
same,Nuptial Chambers Without Egg Galleries % of Total,[7],4.3%
same,Nuptial Chambers Without Egg Galleries No.,[7],0.2
same,Length of Egg Galleries Total,[8],164.4
same,Length of Egg Galleries With Brood,[8],144.8 cm
same,Length of Egg Galleries With Brood % of Total,[8],88.1%
same,Length of Egg Galleries Without Brood,[8],19.6 cm
same,Length of Egg Galleries Without Brood % of Total,[8],11.9%
same,Mean # of Ips caught/trap,[8],1.5
same,Number of Egg Galleries Total,[8],18.0
same,Number of Egg Galleries With Brood % of Total,[8],81.1%
same,Number of Egg Galleries With Brood No.,[8],14.6
same,Number of Egg Galleries Without Brood % of Total,[8],18.9%
same,Number of Egg Galleries Without Brood No.,[8],3.4
same,Nuptial Chambers Total,[8],7.2
same,Nuptial Chambers With Egg Galleries % of Total,[8],69.4%
same,Nuptial Chambers With Egg Galleries No.,[8],5.0
same,Nuptial Chambers Without Egg Galleries % of Total,[8],30.6%
same,Nuptial Chambers Without Egg Galleries No.,[8],2.2
